Assay [1] concerns collagen-induced arthritis in rats. Briefly: collagen-induced arthritis in rats (joint size by electronic calipers, erosion and inflammation). Format: in vivo, rat. As to the method:
Joint sizes were measured periodically, for 70 days, by means of electronic calipers placed across the tibio-tarsal junction.

Assay [2] shares this test system. As to the kind of experiment: X-radiography of hind paws on day 71, collagen-induced arthritis in rats. In kind it is in vivo. Particulars: rat hind paws; 71st day; oral 30 mg/kg per day; versus control. The protocol: On the 71st day the hind paws were examined by X-radiography. Joint damage was assessed according to five parameters and scored on an arbitrary scale of 0 to 5.

The structures appear in SMILES notation.

Consider `CC(=O)c1cc(F)cc(NC(=O)c2nnn[nH]2)c1O` [compound A, 3'-Acetyl-5'-fluoro-2'-hydroxytetrazole-5-carboxanilide], for which, in assay [1] (oral 30 mg/kg per day, 70 days, control animals increased from 7.6 mm to 8.1 mm), the “mean joint diameter (tibio-tarsal junction) over the 70 days” value amounted to 7.7 mm. Also, in assay [1] (oral, 30 mg/kg body weight per day, compared with control animals), the “erosion and inflammation caused by collagen-induced arthritis” value is “inhibited erosion and inflammation”. The “joint damage by X-radiography, five parameters scored on an arbitrary scale of 0 to 5” value in assay [2] is “For each of the five parameters the joints of the control animals were more severely damaged than those of the treated animals”.

(Values after patent US4935435A, “Use of tetrazole derivatives” (May & Baker Limited, priority 1988, dated 1990).)
